Experimental data published in US20160177395A1, “BIOMARKERS FOR THE PREDICTION OF RENAL INJURY” (priority 2007, published 2016).
Values joined by “and” are separate entries in the source; they are usually repeats but may differ in a detail not shown here. Equal values may be shown once. “Also recorded” adds a separate entry of the source.

Key:
[1] = system: kidney tissues of treated or untreated rats; assay: Real-time qRT-PCR of signature amplicons, validation stage, labeled and un-labeled samples (Table 23); details: for H31883_DB71_seg13 normalized qRT-PCR result / MUSCYCG1R_DB81_seg19-20 normalized qRT-PCR result / W41270_DB81_seg11 normalized qRT-PCR result: labeled sample, one line per animal
How it was run: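 Each of four signature genes measured as wild-type and alternative-splice amplicons by qRT-PCR in treated or untreated rat kidney. Normalization was two-step: housekeeping-gene factor, then inter-plate correction from shared samples on a shuffled control plate; final values rescaled for display.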

[2] = system: Sprague-Dawley Crl:CD(SD) rats; assay: Rat toxicity study, single, 5-day and 28-day treatment (clinical observation, clinical pathology, autopsy, organ weights, histopathology); details: for Organ weight: compared with controls;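 on all read-outs here: control rats received saline intraperitoneally, and the organs examined were adrenals, brain, kidneys, liver, spleen and thymus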
Experimental: Control animals were treated intraperitoneal with saline.
Randomization and group allocation: prior to treatment, the animals were assigned to the experimental groups based on their body weight. Mean body weight of each group at randomization was not deviate±20% of the mean population weight. Males and females were randomized separately. For the randomization, a computer program was used.
The day before autopsy, urinalysis was performed and blood samples were taken for hematology and clinical chemistry examinations.
On the day of autopsy the animals were anaesthetized with isoflurane, blood was collected for PBMC isolation then subjected to autopsy. Tissues and organs (adrenals, brain, kidneys, liver, spleen and thymus) were weighed and subjected to gross pathological and histopathological examinations.

[3] = day1, female rat kidney, listed as Cis
[4] = day1, male rat kidney, listed as Cis
[5] = day28, female rat kidney, listed as Cis
[6] = day28, male rat kidney, listed as Cis
[7] = labeled samples, day1, kidney of individual male/female rats, listed as Cis
[8] = labeled samples, day5, kidney of individual male/female rats, listed as Cis
[9] = labeled samples, day28, kidney of individual male/female rats, listed as Cis
[10] = labeled samples, day1, kidney of individual male/female rats
[11] = labeled samples, day5, kidney of individual male/female rats
[12] = labeled samples, day28, kidney of individual male/female rats
[13] = 28-day treatment, male and female rats

Which results are given for N.N.[Cl][Pt][Cl] [Cisplatin]?
H31883_DB71_seg13 normalized qRT-PCR result [1, 3]: 0.844 and 1.209 and 1.345; MUSCYCG1R_DB81_seg19-20 normalized qRT-PCR result [1, 3]: 0.631 and 0.788 and 0.899; W41270_DB81_seg11 normalized qRT-PCR result [1, 3]: 0.81 and 1.261 and 1.096; H31883_DB71_seg13 normalized qRT-PCR result [1, 4]: 0.799 and 1.09 and 0.902; MUSCYCG1R_DB81_seg19-20 normalized qRT-PCR result [1, 4]: 0.495 and 1.64 and 0.811; W41270_DB81_seg11 normalized qRT-PCR result [1, 4]: 0.815 and 2.455 and 1.176; H31883_DB71_seg13 normalized qRT-PCR result [1, 5]: 1.749 and 0.786 and 1.864; MUSCYCG1R_DB81_seg19-20 normalized qRT-PCR result [1, 5]: 2.301 and 1.555 and 3.336; W41270_DB81_seg11 normalized qRT-PCR result [1, 5]: 2.504 and 2.643 and 5.783; H31883_DB71_seg13 normalized qRT-PCR result [1, 6]: 1.587 and 0.786 and 1.371; MUSCYCG1R_DB81_seg19-20 normalized qRT-PCR result [1, 6]: 4.504 and 1.428 and 1.753; W41270_DB81_seg11 normalized qRT-PCR result [1, 6]: 5.917 and 3.371 and 3.008; H31883_DB71_seg13 normalized qRT-PCR expression (Cyclin-G1 (CCNG1) transcript) [1, 7]: 0.668 and 0.853 and 1.416 and 2.092 and 2.559 and 1.134; MUSCYCG1R_DB81_seg19-20 normalized qRT-PCR expression [1, 7]: 0.806 and 1.514 and 1.492 and 3.259 and 2.003 and 1.277; W41270_DB81_seg11 normalized qRT-PCR expression (tumor necrosis factor receptor superfamily, member 12a transcript) [1, 7]: 0.679 and 0.759 and 1.331 and 1.029 and 1.224 and 0.496; AI045075_DB71_seg6 normalized qRT-PCR expression (Interferon stimulated exonuclease 20 (ISG20) transcript) [1, 8]: 1.804 and 1.683 and 4.298 and 1.503 and 0.93 and 1.09; H31883_DB71_seg13 normalized qRT-PCR expression (Cyclin-G1 (CCNG1) transcript) [1, 8]: 3.816 and 5.526 and 3.771 and 1.509 and 1.642 and 2.695; MUSCYCG1R_DB81_seg19-20 normalized qRT-PCR expression [1, 8]: 2.034 and 4.156 and 4.947 and 0.981 and 3.172 and 1.643; W41270_DB81_seg11 normalized qRT-PCR expression (tumor necrosis factor receptor superfamily, member 12a transcript) [1, 8]: 1.262 and 3.597 and 1.404 and 0.843 and 2.113 and 0.705; W64472_DB81_seg2 normalized qRT-PCR expression (Interferon stimulated exonuclease 20 (ISG20) transcript) [1, 8]: 1.795 and 3.64 and 6.414 and 1.976 and 1.448 and 1.265; W83813_DB81_seg27 normalized qRT-PCR expression [1, 8]: 1.716 and 0.857 and 1.461 and 1.366 and 0.758 and 1.265; H31883_DB71_seg13 normalized qRT-PCR expression (Cyclin-G1 (CCNG1) transcript) [1, 9]: 4.41 and 2.839 and 2.398 and 2.653 and 5.592 and 3.563; MUSCYCG1R_DB81_seg19-20 normalized qRT-PCR expression [1, 9]: 3.509 and 3.443 and 1.813 and 3.094 and 7.02 and 3.473; W41270_DB81_seg11 normalized qRT-PCR expression (tumor necrosis factor receptor superfamily, member 12a transcript) [1, 9]: 4.741 and 4.104 and 2.053 and 1.904 and 4.516 and 3.866

Which results are given for Gentamycin?
H31883_DB71_seg13 normalized qRT-PCR result ([1]; day1, female rat kidney): 0.963 and 0.98 and 0.898; MUSCYCG1R_DB81_seg19-20 normalized qRT-PCR result ([1]; day1, female rat kidney): 1.251 and 0.889 and 2.053; W41270_DB81_seg11 normalized qRT-PCR result ([1]; day1, female rat kidney): 0.763 and 0.963 and 1.408; H31883_DB71_seg13 normalized qRT-PCR result ([1]; day1, male rat kidney): 1.02 and 1.409 and 1.161; MUSCYCG1R_DB81_seg19-20 normalized qRT-PCR result ([1]; day1, male rat kidney): 1.072 and 1.848 and 1.221; W41270_DB81_seg11 normalized qRT-PCR result ([1]; day1, male rat kidney): 1.567 and 1.869 and 1.48; H31883_DB71_seg13 normalized qRT-PCR result ([1]; day28, female rat kidney): 0.421 and 0.441 and 0.434; MUSCYCG1R_DB81_seg19-20 normalized qRT-PCR result ([1]; day28, female rat kidney): 0.967 and 2.632 and 1.78; W41270_DB81_seg11 normalized qRT-PCR result ([1]; day28, female rat kidney): 0.806 and 1.079 and 1.164; H31883_DB71_seg13 normalized qRT-PCR result ([1]; day28, male rat kidney): 0.852 and 0.857 and 0.756; MUSCYCG1R_DB81_seg19-20 normalized qRT-PCR result ([1]; day28, male rat kidney): 1.734 and 3.06 and 1.469; W41270_DB81_seg11 normalized qRT-PCR result ([1]; day28, male rat kidney): 1.55 and 1.353 and 1.245; H31883_DB71_seg13 normalized qRT-PCR expression (Cyclin-G1 (CCNG1) transcript) [1, 10]: 0.772 and 1.118 and 0.987 and 1.115 and 0.84 and 1.053; MUSCYCG1R_DB81_seg19-20 normalized qRT-PCR expression [1, 10]: 0.842 and 1.155 and 1.361 and 2.011 and 1.387 and 2.861; W41270_DB81_seg11 normalized qRT-PCR expression (tumor necrosis factor receptor superfamily, member 12a transcript) [1, 10]: 1.361 and 1.037 and 0.904 and 1.08 and 2.078 and 0.85; Label: true label (Normal/Toxic), known renal toxic effect ([1]; labeled samples, day5): Toxic; AI045075_DB71_seg6 normalized qRT-PCR expression (Interferon stimulated exonuclease 20 (ISG20) transcript) [1, 11]: 1.337 and 1.374 and 1.402 and 1.778 and 1.636 and 1.256; H31883_DB71_seg13 normalized qRT-PCR expression (Cyclin-G1 (CCNG1) transcript) [1, 11]: 0.948 and 1.09 and 0.78 and 1.142 and 1.402 and 1.515; MUSCYCG1R_DB81_seg19-20 normalized qRT-PCR expression [1, 11]: 1.085 and 0.993 and 0.955 and 1.442 and 1.842 and 1.644; W41270_DB81_seg11 normalized qRT-PCR expression (tumor necrosis factor receptor superfamily, member 12a transcript) [1, 11]: 0.983 and 0.954 and 1.104 and 1.699 and 0.82 and 2.64; W64472_DB81_seg2 normalized qRT-PCR expression (Interferon stimulated exonuclease 20 (ISG20) transcript) [1, 11]: 1.733 and 2.048 and 1.962 and 1.427 and 1.403 and 1.53; W83813_DB81_seg27 normalized qRT-PCR expression [1, 11]: 1.688 and 1.042 and 0.702 and 1.441 and 1.395 and 0.76; H31883_DB71_seg13 normalized qRT-PCR expression (Cyclin-G1 (CCNG1) transcript) [1, 12]: 0.853 and 0.861 and 0.553 and 0.817 and 0.554 and 0.842; MUSCYCG1R_DB81_seg19-20 normalized qRT-PCR expression [1, 12]: 0.863 and 1.072 and 0.617 and 0.865 and 0.729 and 1.661; W41270_DB81_seg11 normalized qRT-PCR expression (tumor necrosis factor receptor superfamily, member 12a transcript) [1, 12]: 1.614 and 1.342 and 1.315 and 1.194 and 1.188 and 1.941; Autopsy findings ([2]; 5-day treatment): No effect; Body weight gain ([2]; 5-day treatment): Body weight gain was decreased in females; Clinical pathology ([2]; 5-day treatment): elevated urea nitrogen levels found in females; also recorded: ♀: ↑↑BUN; Histopathology / renal damage ([2]; 5-day treatment): No nephrotoxicity was observed; also recorded: No renal damage was found at histopathological examination; Organ weight ([2]; 5-day treatment): No effect; Body weight and body weight gain ([2]; 28-day treatment): affected body weight gain of animals in both sexes; also recorded: Effect on body weight and body weight gain was seen; Histopathology / nephrotoxicity ([2]; 28-day treatment): Signs of nephrotoxicity occurred in all animals of both sexes; also recorded: nephrotoxic effect of the test item was confirmed by histopathology; also recorded: basophilia in the cortex; Decreasing order of nephrotoxicity at histopathological examination ([2]; 28-day treatment, females): Cisplatin, Cadmium chloride, Gentamycin, Doxorubicin and Tobramycin in females; Autopsy findings [2, 13]: enlarged and discolored kidneys were observed in males; also recorded: Alterations were found in the kidneys; also recorded: ♂♀: ↑↑, pale; Organ weight [2, 13]: Kidney weight increased in both sexes and Increased weights of kidneys in males and Higher weights of kidneys in females and Weights of spleen were higher in Gentamycin treated males and Decreased thymus weights were found in Gentamycin and Tobramycin treated males and ↑↑; Decreasing order of nephrotoxicity at histopathological examination ([2]; 28-day treatment, males): Cisplatin, Gentamycin, Tobramycin and Doxorubicin in males
